# Key:
# Type in all cases: in vivo
# [1] = tested on: winter wheat (Triticum aestivum); assay: Test D pre-/postemergence plant response; conditions: Postemergence
# Outline: (§1)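 Visual rating, 0–100 scale (0 = no effect, 100 = complete control), versus untreated controls 13 to 15 days after treatment in greenhouse. Preemergence: seeds in loam/sand soil. Postemergence: 2 to 18 cm plants, 1- to 4-leaf stage, peat-based medium. Compounds formulated in non-phytotoxic solvent plus surfactant.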
# [2] = tested on: johnsongrass (Sorghum halepense); assay: Test D pre-/postemergence plant response; conditions: Postemergence; for Plant response rating, Johnsongrass: scale 0 to 100, 0 no effect, 100 complete control
# Outline: as §1
# [3] = tested on: morningglory (Ipomoea coccinea); assay: Test D pre-/postemergence plant response; conditions: Postemergence
# Outline: as §1
# [4] = tested on: waterhemp (common waterhemp, Amaranthus rudis); assay: Test D pre-/postemergence plant response; conditions: Postemergence
# Outline: as §1
# [5] = tested on: lambsquarters (Chenopodium album); assay: Test D pre-/postemergence plant response; conditions: Postemergence
# Outline: as §1
# soybean (Glycine max) = assay: Test D pre-/postemergence plant response; conditions: Postemergence
# Outline: as §1
# [6] = tested on: velvetleaf (Abutilon theophrasti); assay: Test D pre-/postemergence plant response; conditions: Postemergence
# Outline: as §1
# corn (Zea mays) = assay: Test B pre-/postemergence plant response
# Outline: (§2)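 Evaluation is visual, about 10 days after application, rating injury from 0 (none) to 100 (complete control) relative to untreated controls. Application was a preemergence soil spray on seeded pots or a postemergence spray on one- to two-leaf plants.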
# [7] = tested on: wheat (Triticum aestivum); assay: Test B pre-/postemergence plant response
# Outline: as §2
# [8] = tested on: giant foxtail (Setaria faberii); assay: Test B pre-/postemergence plant response
# Outline: as §2
# [9] = tested on: pigweed (Amaranthus retroflexus); assay: Test B pre-/postemergence plant response
# Outline: as §2
# [10] = tested on: barnyardgrass (Echinochloa crus-galli); assay: Test B pre-/postemergence plant response
# Outline: as §2
# [11] = tested on: ducksalad (Heteranthera limosa); assay: Test C flooded paddy test plant response; conditions: Flood, 250 g ai/ha; scale of 0 to 100 where 0 is no effect and 100 is complete control; 13 to 15 days
# Outline: (§3)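 Water-applied treatment: compounds go directly into floodwater standing 3 cm over the soil of pots holding 2-leaf-stage plants. Depth is kept constant; plants stay in a greenhouse 13 to 15 days before visual comparison with controls on a 0–100 scale.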
# [12] = tested on: small-flower umbrella sedge (Cyperus difformis); assay: Test C flooded paddy test plant response; conditions: Flood, 250 g ai/ha; scale of 0 to 100 where 0 is no effect and 100 is complete control; 13 to 15 days
# Outline: as §3
# rice (Oryza sativa) = assay: Test C flooded paddy test plant response; conditions: Flood, 250 g ai/ha; scale of 0 to 100 where 0 is no effect and 100 is complete control; 13 to 15 days
# Outline: as §3
# [13] = tested on: barnyardgrass (Echinochloa crus-galli); assay: Test C flooded paddy test plant response; conditions: Flood, 250 g ai/ha; scale of 0 to 100 where 0 is no effect and 100 is complete control; 13 to 15 days
# Outline: as §3
# [14] = 125 g ai/ha, postemergence, 0 to 100 scale, 0 no effect, 100 complete control
# [15] = Postemergence, 31 g ai/ha, 0 to 100 scale (0 no effect, 100 complete control)
# [16] = 31 g ai/ha, Preemergence, 0 to 100 scale where 0 is no effect and 100 is complete control
# [17] = Preemergence, 125 g ai/ha, 0 to 100 scale (0 no effect, 100 complete control)
# [18] = 31 g ai/ha, scale 0 to 100 (0 no effect, 100 complete control)
# [19] = 62 g ai/ha, scale 0 to 100, 0 no effect, 100 complete control
# [20] = 125 g ai/ha, scale 0 to 100, 0 no effect, 100 complete control
compound,measurement,setting,value
CC(F)(F)c1cc(-c2ccccc2Oc2ncc(Cl)cn2)no1 [Compound 220],"Plant response rating (scale 0 to 100), Wheat",[1]; 2 g ai/ha,0
same,"Plant response rating (scale 0 to 100), Wheat",[1]; 4 g ai/ha,0
same,"Plant response rating (scale 0 to 100), Wheat",[1]; 8 g ai/ha,0
same,"Plant response rating (scale 0 to 100), Wheat",[1]; 16 g ai/ha,0
same,"Plant response rating (scale 0 to 100), Johnsongrass",[2]; 2 g ai/ha,0
same,"Plant response rating (scale 0 to 100), Johnsongrass",[2]; 4 g ai/ha,0
same,"Plant response rating (scale 0 to 100), Johnsongrass",[2]; 8 g ai/ha,0
same,"Plant response rating (scale 0 to 100), Johnsongrass",[2]; 16 g ai/ha,5
same,"Plant response rating (scale 0 to 100), Morningglory",[3]; 2 g ai/ha,35
same,"Plant response rating (scale 0 to 100), Morningglory",[3]; 4 g ai/ha,15
same,"Plant response rating (scale 0 to 100), Morningglory",[3]; 8 g ai/ha,25
same,"Plant response rating (scale 0 to 100), Morningglory",[3]; 16 g ai/ha,75
same,"Plant response rating (scale 0 to 100), Waterhemp",[4]; 2 g ai/ha,15
same,"Plant response rating (scale 0 to 100), Waterhemp",[4]; 4 g ai/ha,60
same,"Plant response rating (scale 0 to 100), Waterhemp",[4]; 8 g ai/ha,70
same,"Plant response rating (scale 0 to 100), Waterhemp",[4]; 16 g ai/ha,80
same,"Plant response rating (scale 0 to 100), Lambsquarters",[5]; 2 g ai/ha,55
same,"Plant response rating (scale 0 to 100), Lambsquarters",[5]; 4 g ai/ha,45
same,"Plant response rating (scale 0 to 100), Lambsquarters",[5]; 8 g ai/ha,5
same,"Plant response rating (scale 0 to 100), Lambsquarters",[5]; 16 g ai/ha,70
same,"Plant response rating (scale 0 to 100), Soybean",soybean (Glycine max); 2 g ai/ha,15
same,"Plant response rating (scale 0 to 100), Soybean",soybean (Glycine max); 4 g ai/ha,10
same,"Plant response rating (scale 0 to 100), Soybean",soybean (Glycine max); 8 g ai/ha,10
same,"Plant response rating (scale 0 to 100), Soybean",soybean (Glycine max); 16 g ai/ha,10
same,"Plant response rating (scale 0 to 100), Velvetleaf",[6]; 2 g ai/ha,5
same,"Plant response rating (scale 0 to 100), Velvetleaf",[6]; 4 g ai/ha,15
same,"Plant response rating (scale 0 to 100), Velvetleaf",[6]; 8 g ai/ha,10
same,"Plant response rating (scale 0 to 100), Velvetleaf",[6]; 16 g ai/ha,25
same,"Plant response rating, Corn",corn (Zea mays); [14],20
same,"Plant response rating, Corn",corn (Zea mays); [15],10
same,"Plant response rating, Wheat",[7]; [14],50
same,"Plant response rating, Wheat",[7]; [15],10
same,"Plant response rating, Foxtail, Giant",[8]; [16],70
same,"Plant response rating, Foxtail, Giant",[8]; [14],80
same,"Plant response rating, Foxtail, Giant",[8]; [15],30
same,"Foxtail, Giant plant response rating",[8]; [17],100
same,"Plant response rating, Pigweed",[9]; [16],100
same,"Plant response rating, Pigweed",[9]; [14],100
same,"Plant response rating, Pigweed",[9]; [15],100
same,Pigweed plant response rating,[9]; [17],100
same,"Plant response rating, Barnyardgrass",[10]; [16],10
same,"Plant response rating, Barnyardgrass",[10]; [14],40
same,"Plant response rating, Barnyardgrass",[10]; [15],10
same,Barnyardgrass plant response rating,[10]; [17],100
same,Ducksalad plant response rating,[11],80
same,"Sedge, Umbrella plant response rating",[12],75
same,Rice plant response rating,rice (Oryza sativa),0
same,Barnyardgrass plant response rating,[13],20
Fc1ccc(Oc2ncc(Cl)cn2)c(-c2cc(C(F)(Cl)Cl)on2)c1 [Compound 221],"Plant response rating (scale 0 to 100), Wheat",[1]; 16 g ai/ha,0
same,Wheat plant response rating,[1]; [18],0
same,Wheat plant response rating,[1]; [19],5
same,"Plant response rating, Wheat",[1]; [20],0
same,"Plant response rating (scale 0 to 100), Johnsongrass",[2]; 16 g ai/ha,0
same,Johnsongrass plant response rating,[2]; [18],5
same,"Plant response rating, Johnsongrass",[2]; 62 g ai/ha,15
same,"Plant response rating, Johnsongrass",[2]; 125 g ai/ha,15
same,"Plant response rating (scale 0 to 100), Morningglory",[3]; 16 g ai/ha,65
same,Morningglory plant response rating,[3]; [18],65
same,Morningglory plant response rating,[3]; [19],80
same,"Plant response rating, Morningglory",[3]; [20],85
same,"Plant response rating (scale 0 to 100), Waterhemp",[4]; 16 g ai/ha,70
same,Waterhemp plant response rating,[4]; [18],85
same,Waterhemp plant response rating,[4]; [19],100
same,"Plant response rating, Waterhemp",[4]; [20],100
same,"Plant response rating (scale 0 to 100), Lambsquarters",[5]; 16 g ai/ha,85
same,Lambsquarters plant response rating,[5]; [18],95
same,Lambsquarters plant response rating,[5]; [19],95
same,"Plant response rating, Lambsquarters",[5]; [20],98
same,"Plant response rating (scale 0 to 100), Soybean",soybean (Glycine max); 16 g ai/ha,35
same,Soybean plant response rating,soybean (Glycine max); [18],25
same,Soybean plant response rating,soybean (Glycine max); [19],85
same,"Plant response rating, Soybean",soybean (Glycine max); [20],90
same,"Plant response rating (scale 0 to 100), Velvetleaf",[6]; 16 g ai/ha,70
same,Velvetleaf plant response rating,[6]; [18],65
same,Velvetleaf plant response rating,[6]; [19],80
same,"Plant response rating, Velvetleaf",[6]; [20],100
same,"Plant response rating, Corn",corn (Zea mays); [14],50
same,"Plant response rating, Corn",corn (Zea mays); [15],20
same,"Plant response rating, Wheat",[7]; [14],30
same,"Plant response rating, Wheat",[7]; [15],20
same,"Plant response rating, Foxtail, Giant",[8]; [16],50
same,"Plant response rating, Foxtail, Giant",[8]; [14],90
same,"Plant response rating, Foxtail, Giant",[8]; [15],10
same,"Foxtail, Giant plant response rating",[8]; [17],90
same,"Plant response rating, Pigweed",[9]; [16],100
same,"Plant response rating, Pigweed",[9]; [14],90
same,"Plant response rating, Pigweed",[9]; [15],90
same,Pigweed plant response rating,[9]; [17],100
same,"Plant response rating, Barnyardgrass",[10]; [16],20
same,"Plant response rating, Barnyardgrass",[10]; [14],90
same,"Plant response rating, Barnyardgrass",[10]; [15],10
same,Barnyardgrass plant response rating,[10]; [17],90
same,Ducksalad plant response rating,[11],100
same,"Sedge, Umbrella plant response rating",[12],95
same,Rice plant response rating,rice (Oryza sativa),0
same,Barnyardgrass plant response rating,[13],0
